Measurements reported in patent US12606541B2, “PPARg modulators and methods of use” (Eisai R&D Management Co., Ltd., priority 2020, dated 2026).

Legend:
His6-TEV-PPARγ-(234-505) = target: T1, His6-TEV-PPARγ-(234-505) (Homo sapiens, UniProt P37231); assay: TR-FRET Assay to Measure Co-R Peptide Recruitment to PPARγ; type: biochemical; conditions: Co-R peptide (SMRT-ID2) recruitment; top final concentration 20 μM; read-out: TR-FRET i-Ag; AC50
T1 construct: The His6-TEV-PPARγ-(234-505) protein for assay was expressed and purified; TEV cleavage site (N); made in house
T1 sequence (P37231 234-505): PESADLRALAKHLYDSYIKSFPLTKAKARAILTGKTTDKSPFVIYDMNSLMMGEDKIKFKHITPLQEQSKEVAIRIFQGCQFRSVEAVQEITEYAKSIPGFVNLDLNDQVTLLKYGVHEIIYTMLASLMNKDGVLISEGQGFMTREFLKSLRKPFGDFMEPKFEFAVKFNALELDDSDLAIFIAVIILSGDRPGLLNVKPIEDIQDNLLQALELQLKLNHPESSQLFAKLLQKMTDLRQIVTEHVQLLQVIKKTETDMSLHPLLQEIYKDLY
Method in brief: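 His-tagged PPARγ (or controls) was preincubated with compound for 20 minutes at room temperature, then 5 nM anti-His terbium antibody and 200 nM FITC-labeled SMRT-ID2 corepressor peptide (final) were added for a further hour. TR-FRET signal was normalized to percent response using 500 nM T0070907 and DMSO controls.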

UM-UC-9 engineered cells = assay: Cell proliferation / short-term viability assay, CellTiter-Glo 144 h; type: cell-based, human; conditions: Homo sapiens, UM-UC-9, 144 h, read-out: CTGlo 144 h UMUC9.5, G150
Method in brief: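 UM-UC-9 engineered assay-ready cells seeded at 500 cells/well in high-glucose DMEM/10% FBS, treated from dose-response plates, grown at 37° C, 5% CO2. CellTiter-Glo 2.0 luminescence read on day 7, with a day-0 pretreatment plate as T0 reference and DMSO wells as negative control.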

Structure (SMILES)	AC50 (His6-TEV-PPARγ-(234-505)) [nM]	IC50 (UM-UC-9 engineered cells) [nM]
COc1cc(-c2cc(C(=O)N3CCC(C(=O)NCc4cc5ccccc5[nH]4)CC3)n[nH]2)c(Cl)cn1 [Example 250, N-((1H-indol-2-yl)methyl)-1-(5-(5-chloro-2-methoxypyridin-4-yl)-1H-pyrazole-3-carbonyl)piperidine-4-carboxamide]	24.7	430
COc1cc(-c2cc(C(=O)N3CCC(C(=O)Nc4cccc(C)n4)CC3)n[nH]2)c(Cl)cn1 [Example 251, 1-(5-(5-chloro-2-methoxypyridin-4-yl)-1H-pyrazole-3-carbonyl)-N-(6-methylpyridin-2-yl)piperidine-4-carboxamide]	254	1380
COc1cc(-c2cc(C(=O)N3CCC(C(=O)NCc4nccc5[nH]ccc45)CC3)n[nH]2)c(Cl)cn1 [Example 254, N-((1H-pyrrolo[3,2-c]pyridin-4-yl)methyl)-1-(5-(5-chloro-2-methoxypyridin-4-yl)-1H-pyrazole-3-carbonyl)piperidine-4-carboxamide]	58.8	> 2000
COc1cc(-c2cc(C(=O)N3[C@@H]4CC[C@H]3C[C@H](C(=O)NCc3ccc5[nH]nc(F)c5c3)C4)n[nH]2)c(F)cn1 [Example 258, (1R,3S,5S)—N-[(3-fluoro-1H-indazol-5-yl)methyl]-8-[5-(5-fluoro-2-methoxypyridin-4-yl)-1H-pyrazole-3-carbonyl]-8-azabicyclo[3.2.1]octane-3-carboxamide]	17	20
COc1cc(-c2cc(C(=O)N3CCC(C(=O)Nc4cnc(C)c(C)n4)CC3)n[nH]2)c(Cl)cn1 [Example 260, 1-(5-(5-chloro-2-methoxypyridin-4-yl)-1H-pyrazole-3-carbonyl)-N-(5,6-dimethylpyrazin-2-yl)piperidine-4-carboxamide]	970	4030
COc1cc(-c2cc(C(=O)N3CCC(C(=O)Nc4cccc5[nH]ccc45)CC3)n[nH]2)c(Cl)cn1 [Example 261, 1-(5-(5-chloro-2-methoxypyridin-4-yl)-1H-pyrazole-3-carbonyl)-N-(1H-indol-4-yl)piperidine-4-carboxamide]	78.4	490
Cc1cc(-c2cc(C(=O)N3CCC(C(=O)NCc4cccc(Cl)c4)CC3)n[nH]2)c(Cl)cn1 [Example 262, 1-[5-(5-chloro-2-methylpyridin-4-yl)-1H-pyrazole-3-carbonyl]-N-[(3-chlorophenyl)methyl]piperidine-4-carboxamide]	29.2	332
COc1cc(-c2cc(C(=O)N3CCC(C(=O)NC4CCC(C)(O)CC4)CC3)n[nH]2)c(Cl)cn1 (stereo not drawn) [Example 264-A]	658	4890
COc1cc(-c2cc(C(=O)N3CCC(C(=O)NC4c5ccccc5OC4C)CC3)n[nH]2)c(Cl)cn1 (stereo not drawn) [Example 265, 1-(5-(5-chloro-2-methoxypyridin-4-yl)-1H-pyrazole-3-carbonyl)-N-(2-methyl-2,3-dihydrobenzofuran-3-yl)piperidine-4-carboxamide]	87.7	458
Cc1cc(-c2cc(C(=O)N3CCC(C(=O)NCc4cccc(Cl)c4)CC3)n[nH]2)c(F)cn1 [Example 267, N-[(3-chlorophenyl)methyl]-1-[5-(5-fluoro-2-methylpyridin-4-yl)-1H-pyrazole-3-carbonyl]piperidine-4-carboxamide]	14.2	104
Cc1cc(-c2cc(C(=O)N3[C@@H]4CC[C@H]3C[C@H](C(=O)NCc3cccc(Cl)c3)C4)n[nH]2)c(F)cn1 [Example 268, (1R,3S,5S)—N-[(3-chlorophenyl)methyl]-8-[5-(5-fluoro-2-methylpyridin-4-yl)-1H-pyrazole-3-carbonyl]-8-azabicyclo[3.2.1]octane-3-carboxamide]	7	36.5
Cc1cc(-c2cc(C(=O)N3CCC(C(=O)NCc4ccc5[nH]nc(F)c5c4)CC3)n[nH]2)c(F)cn1 [Example 269, N-[(3-fluoro-1H-indazol-5-yl)methyl]-1-[5-(5-fluoro-2-methylpyridin-4-yl)-1H-pyrazole-3-carbonyl]piperidine-4-carboxamide]	12	160
CCc1cc(-c2cc(C(=O)N3CCC(C(=O)NCc4cccc(Cl)c4)CC3)n[nH]2)c(Cl)cn1 [Example 270, 1-[5-(5-chloro-2-ethylpyridin-4-yl)-1H-pyrazole-3-carbonyl]-N-[(3-chlorophenyl)methyl]piperidine-4-carboxamide]	23.4	306
Cc1cc(-c2cc(C(=O)N3CCC(C(=O)NCc4ccc5[nH]ccc5c4)CC3)n[nH]2)c(F)cn1 [Example 271, 1-[5-(5-fluoro-2-methylpyridin-4-yl)-1H-pyrazole-3-carbonyl]-N-(1H-indol-5-ylmethyl)piperidine-4-carboxamide]	6.1	30.3
COc1cc(-c2cc(C(=O)N3CCC(C(=O)NCc4ccc5[nH]c(C)c(C)c5c4)CC3)n[nH]2)c(F)cn1 [Example 272, N-[(2,3-dimethyl-1H-indol-5-yl)methyl]-1-[5-(5-fluoro-2-methoxypyridin-4-yl)-1H-pyrazole-3-carbonyl]piperidine-4-carboxamide]	9	111
COc1cc(-c2cc(C(=O)N3CC[C@@H](C(=O)NCc4cccc(Cl)c4)C[C@H]3C)n[nH]2)c(Cl)cn1 [Example 273, (2R,4R)-1-(5-(5-chloro-2-methoxypyridin-4-yl)-1H-pyrazole-3-carbonyl)-N-(3-chlorobenzyl)-2-methylpiperidine-4-carboxamide]	26.7	213
COc1cc(-c2cc(C(=O)N3CCC(C(=O)NC4CCC5(CCO5)CC4)CC3)n[nH]2)c(F)cn1 (stereo not drawn) [Example 276, 1-(5-(5-fluoro-2-methoxypyridin-4-yl)-1H-pyrazole-3-carbonyl)-N-(1-oxaspiro[3.5]nonan-7-yl)piperidine-4-carboxamide]	813	> 4000
COc1cc(-c2cc(C(=O)N3[C@@H]4CC[C@H]3C[C@H](C(=O)NCc3ccc5c(c3)c(F)nn5C)C4)n[nH]2)c(F)cn1 [Example 277, (1R,3s,5S)—N-((3-fluoro-1-methyl-1H-indazol-5-yl)methyl)-8-(5-(5-fluoro-2-methoxypyridin-4-yl)-1H-pyrazole-3-carbonyl)-8-azabicyclo[3.2.1]octane-3-carboxamide]	3.3	29
COc1cc(-c2cc(C(=O)N3CCC(C(=O)NCc4ccc5c(c4)C(C)(C)CN5)CC3)n[nH]2)c(F)cn1 [Example 278, N-((3,3-dimethylindolin-5-yl)methyl)-1-(5-(5-fluoro-2-methoxypyridin-4-yl)-1H-pyrazole-3-carbonyl)piperidine-4-carboxamide]	75.1	478
Cc1cc(-c2cc(C(=O)N3[C@@H]4CC[C@H]3C[C@H](C(=O)N[C@H]3CC[C@@](O)(C(F)(F)F)CC3)C4)n[nH]2)ncn1 [Example 279, (1R,3s,5S)—N-((1r,4R)-4-hydroxy-4-(trifluoromethyl)cyclohexyl)-8-(5-(6-methylpyrimidin-4-yl)-1H-pyrazole-3-carbonyl)-8-azabicyclo[3.2.1]octane-3-carboxamide]	24.6	290
COc1cc(-c2cc(C(=O)N3C4COCC3CC(C(=O)N[C@H]3CC[C@@](O)(C(F)(F)F)CC3)C4)n[nH]2)c(F)cn1 (stereo partly drawn) [Example 282, 9-(5-(5-fluoro-2-methoxypyridin-4-yl)-1H-pyrazole-3-carbonyl)-N-((1r,4r)-4-hydroxy-4-(trifluoromethyl)cyclohexyl)-3-oxa-9-azabicyclo[3.3.1]nonane-7-carboxamide]	59	293
Cc1cc(-c2cc(C(=O)N3[C@@H]4CC[C@H]3C[C@H](C(=O)N[C@H]3CC[C@@](O)(C(F)(F)F)CC3)C4)n[nH]2)c(F)cn1 [Example 283, (1R,3R,5S)-8-[5-(5-fluoro-2-methylpyridin-4-yl)-1H-pyrazole-3-carbonyl]-N-[(1r,4r)-4-hydroxy-4-(trifluoromethyl)cyclohexyl]-8-azabicyclo[3.2.1]octane-3-carboxamide]	7.5	70.8
Cc1cc(-c2cc(C(=O)N3[C@@H]4CC[C@H]3C[C@H](C(=O)NCc3ccc5[nH]nc(F)c5c3)C4)n[nH]2)c(F)cn1 [Example 284, (1R,3s,5S)—N-((3-fluoro-1H-indazol-5-yl)methyl)-8-(5-(5-fluoro-2-methylpyridin-4-yl)-1H-pyrazole-3-carbonyl)-8-azabicyclo[3.2.1]octane-3-carboxamide]	2.3	12.1
COc1cc(-c2cc(C(=O)N3[C@@H]4CC[C@H]3C[C@H](C(=O)NCc3ccc5[nH]c(C)c(C)c5c3)C4)n[nH]2)c(F)cn1 [Example 285, (1R,3R,5S)—N-[(2,3-dimethyl-1H-indol-5-yl)methyl]-8-[5-(5-fluoro-2-methoxypyridin-4-yl)-1H-pyrazole-3-carbonyl]-8-azabicyclo[3.2.1]octane-3-carboxamide]	7.9	16.3
